What was measured:
[1] = biological target: prostaglandin cyclooxygenase; test: Prostaglandin cyclooxygenase activity, macrophages; assay type: cell-based, mouse (J774 macrophages); settings: Table 7
cathepsin = test: Cathepsin activity, mouse macrophages; assay type: cell-based, mouse (J774 macrophages); settings: Table 3; read-out: IC50 Cathepsin, Mouse Macrophage
acid phosphatase = test: Acid phosphatase activity, mouse macrophages; assay type: cell-based, mouse (J774 macrophages); settings: Table 3; read-out: IC50 Acid Phosphatase, Mouse Macrophage
[2] = tested on: tail flick response to heat; test: Hot plate tail flick screen; assay type: in vivo, CF1 male mice; settings: for Mice Tail Flick: 8 mg/kg I.P., hot plate, Table 2; for tail flick assay time / blocking central pain compared with morphine: mice; for tail flick assay time: 8 mg/kg; for blocking central pain compared with morphine: tail flick
trypsin = test: Trypsin proteolytic activity, mouse macrophages; assay type: cell-based, mouse (J774 macrophages); settings: Table 5; read-out: IC50 Trypsin, Mouse Macrophage
elastase = test: Elastase activity, mouse macrophages; assay type: cell-based, mouse (J774 macrophages); settings: Table 5; read-out: IC50 Elastase, Mouse Macrophage
[3] = tested on: acetic acid induced stretch reflex; test: Local analgesic screen (acetic acid writhing); assay type: in vivo, CF1 mice; settings: for Mice Writhing Reflex: 8 mg/kg I.P., Table 2; for reduction of the reflex action: mice, acetic acid induced local pain, 8 mg/kg
[4] = tested on: carrageenan-induced inflammation of paw; test: Carrageenan-induced paw edema, rats; assay type: in vivo, Sprague Dawley male rats; settings: for reduction in induced edema in rats: 8 mg/kg x 2; for Rat Inflammatory: 8 mg/kg x 2, I.P., Table 2;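 for Rat Inflammatory: paw weight increase as percent of control rats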
[5] = tested on: adjuvant (M. butyricum) arthritis; test: Chronic adjuvant arthritic screen; assay type: in vivo; settings: rats; for Rat Chronic Arthritis: 8 mg/kg/day I.P., Day 3 to Day 21, Table 2
[6] = tested on: carrageenan-induced pleural fluid; test: Anti-pleurisy screen; assay type: in vivo, Sprague Dawley male rats; settings: for pleurisy edema in rats: 8 mg/kg; for Rat Pleurisy: rats, 8 mg/kg I.P., 1 h before and 3 h after carrageenan, Table 2;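 for Rat Pleurisy: Pleural fluid volume as percent of control rats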
aryl sulphatase = test: Aryl sulfatase activity, mouse macrophages; assay type: cell-based, mouse (J774 macrophages); settings: Table 3; read-out: IC50 Aryl Sulfatase, Mouse Macrophage
[7] = tested on: carrageenan-induced inflammation of hind foot; test: Carrageenan-induced foot edema, mice; assay type: in vivo, CF1 male mice; settings: for anti-inflammatory activity in mouse edema screen / reduction of induced edema: mice; for anti-inflammatory activity in mouse edema screen: 8 mg/kg x 2; for reduction of induced edema: 8 mg/kg x 2, I.P., carrageenan; for inhibition of induced inflammation: standards at their therapeutic dose (indomethacin 8 mg/kg x 2, pentoxifylline and phenylbutazone 50 mg/kg x 2)

| Compound | IC50 (cathepsin) | IC50 (acid phosphatase) | IC50 (trypsin) | IC50 (elastase) | Mice Writhing Reflex [3] | reduction of the reflex action [3] | Rat Inflammatory [4] | reduction of induced edema [7] | other results |
| --- | --- | --- | --- | --- | --- | --- | --- | --- | --- |
| C[NH+](C)[BH2-]C(=O)O [Compound 3] | 6.39 µM | 4.75 µM | 3.1 µM | 2.67 µM | – | – | – | – | IC50 [1]: 2.91 µM; Mice Tail Flick [2]: 156 % of control; tail flick assay time [2]: increased |
| C[N+](C)(C)[BH2-]C(=O)O [Compound 4] | – | – | – | – | 2 % of control | 80% | 55 % of control | – | reduction in induced edema in rats [4]: at least 40% |
| CC[NH2+][BH2-]C(=O)O [Compound 5] | – | – | – | – | 1 % of control | 80% | 59 % of control | – | Mice Tail Flick [2]: 196 % of control; tail flick assay time [2]: increased; reduction in induced edema in rats [4]: at least 40% |
| CCC[NH+]([BH2-]C(=O)O)CCC [Compound 6] | – | – | – | – | 19 % of control | – | 55 % of control | – | reduction in induced edema in rats [4]: at least 40% |
| C[N+](C)([BH2-]C(=O)O)CC[N+](C)(C)[BH2-]C(=O)O [Compound 7] | 8.37 µM | 3.32 µM | 2.33 µM | 2.76 µM | 55 % of control | at least 45% | – | – | IC50 [1]: 1.85 µM; reduction of pannus ([5]; 8 mg/kg/day): greater than 75%; Rat Chronic Arthritis [5]: 24 % of control |
| CCCCCCCCCCCCCCCCCC[N+](C)(C)[BH2-]C(=O)O [Compound 9] | 5.09 µM | 5.34 µM | 2.07 µM | 6.29 µM | 14 % of control | 80% | 72 % of control | – | IC50 [1]: 2.51 µM; pleurisy edema in rats [6]: reduced significantly; Rat Pleurisy [6]: 37 % of control; Mice Tail Flick [2]: 231 % of control; tail flick assay time [2]: increased; blocking central pain compared with morphine [2]: as effective as morphine |
| O=C(O)[BH2-][n+]1ccccc1 [Compound 11] | – | – | – | – | – | – | 77 % of control | – | – |
| COC(=O)[BH2-][N+](C)(C)C [Compound 16] | 8.28 µM | 3.55 µM | 3.23 µM | 8.76 µM | 2 % of control | 80% | 71 % of control | – | IC50 [1]: 2.41 µM; pleurisy edema in rats [6]: reduced significantly; Rat Pleurisy [6]: 45 % of control; IC50 (aryl sulphatase): 17.6 µM; Mice Tail Flick [2]: 180 % of control; tail flick assay time [2]: increased; anti-inflammatory activity in mouse edema screen [7]: less active |
| CCCCCCCCCCCCCCCC[N+](C)(C)[BH2-]C(=O)OCC [Compound 19] | – | – | – | – | – | – | – | – | anti-inflammatory activity in mouse edema screen [7]: less active |
| CCNC(=O)[BH2-][NH2+]C [Compound 23] | 3.95 µM | 1.12 µM | 2.03 µM | 3.29 µM | 27 % of control | at least 45% | 41 % of control | – | IC50 [1]: 5.19 µM; IC50 (aryl sulphatase): 9.27 µM; Mice Tail Flick [2]: 81 % of control; reduction in induced edema in rats [4]: at least 40% |
| CCNC(=O)[BH2-][N+](C)(C)C [Compound 25] | – | – | – | – | 89 % of control | – | – | – | – |
| CCCCNC(=O)[BH2-][N+](C)(C)C [Compound 27] | – | – | – | – | – | at least 45% | – | – | – |
| CCNC(=O)[BH2-][N+](C)(C)CC[N+](C)(C)[BH2-]C(=O)NCC [Compound 30] | – | – | – | – | 34 % of control | – | – | – | – |
| CCCCCCCCCCCCCCCCCC[N+](C)(C)[BH2-]C#N [Compound 36] | 3.69 µM | 2.68 µM | 4.34 µM | 10.3 µM | 61 % of control | at least 45% | – | – | IC50 [1]: 2.23 µM; anti-inflammatory activity in mouse edema screen [7]: good activity |
| N#C[BH2-][P+](c1ccccc1)(c1ccccc1)c1ccccc1 [Compound 48] | – | – | – | – | 50 % of control | at least 45% | 78 % of control | – | Mice Tail Flick [2]: 134 % of control |
| CCNC(=O)[BH2-][P+]([O-])(OCC)OCC.[Na+] [Compound 54] | – | – | – | – | – | – | – | at least 40% | – |
| CCCC[N+](CCCC)(CCCC)CCCC.CCNC(=O)[BH2-][P+]([O-])(OCC)OCC [Compound 57] | 6.49 µM | 4.43 µM | 3.76 µM | 9.01 µM | – | – | – | – | IC50 [1]: 3.09 µM |
| CC[N+]([BH2-]C#N)(CC)CP(=O)(OC)OC [Compound 62] | – | – | – | – | – | – | – | at least 40% | – |

| Compound | IC50 (cathepsin) | IC50 (acid phosphatase) | IC50 (trypsin) | IC50 (elastase) | Mice Writhing Reflex [3] | reduction of the reflex action [3] | Rat Inflammatory [4] | reduction of induced edema [7] | other results |
| --- | --- | --- | --- | --- | --- | --- | --- | --- | --- |
| CC[N+]([BH2-]C#N)(CC)CP(=O)(OC(C)C)OC(C)C [Compound 64] | – | – | – | – | – | – | – | at least 40% | – |
| CCOP(=O)(C[N+](C)(C)[BH2-]C#N)OCC [Compound 66] | – | – | – | – | – | – | – | at least 40% | – |
| CC(C)OP(=O)(C[NH+](C)[BH2-]C#N)OC(C)C (stereo not drawn) [Compound 67] | – | – | – | – | – | – | – | at least 40% | – |
| CCOC(=O)[BH2-][N+](C)(C)CP(=O)(OCC)OCC [Compound 68] | – | – | – | – | – | – | – | at least 40% | – |
| CCNC(=O)[BH2-][NH+](C)CP(=O)(OCC)OCC (stereo not drawn) [Compound 69] | – | – | – | – | – | – | – | at least 40% | – |
| CC(C)OP(=O)(C[NH+](C)[BH2-]C(=O)O)OC(C)C (stereo not drawn) [Compound 71] | – | – | – | – | – | – | – | at least 40% | – |
| CCNC(=O)[BH2-][NH+](C)CP(=O)(OC(C)C)OC(C)C (stereo not drawn) [Compound 73] | – | – | – | – | – | – | – | at least 40% | – |
| C[NH2+][BH2-]C(=O)NO.[H+].c1ccc([B-](c2ccccc2)(c2ccccc2)c2ccccc2)cc1 [Compound 75] | 4.58 µM | 6.61 µM | 2.51 µM | 7.59 µM | 34 % of control | at least 45% | – | at least 40% | IC50 [1]: 6.61 µM; IC50 (aryl sulphatase): 1.5 µM; Mice Tail Flick [2]: 279 % of control; tail flick assay time [2]: increased; blocking central pain compared with morphine [2]: as effective as morphine |
| C[N+](C)(C)[BH2-]C(=O)NO.[H+].c1ccc([B-](c2ccccc2)(c2ccccc2)c2ccccc2)cc1 [Compound 76] | 1.69 µM | 3.96 µM | 2.06 µM | 4.83 µM | 45 % of control | at least 45% | 60 % of control | at least 40% | IC50 [1]: 1.61 µM; pleurisy edema in rats [6]: reduced significantly; Rat Pleurisy [6]: 50 % of control; IC50 (aryl sulphatase): 1.37 µM; Mice Tail Flick [2]: 258 % of control; tail flick assay time [2]: increased; blocking central pain compared with morphine [2]: as effective as morphine |
| [BH3-][NH+]1CCOCC1 [Compound 78] | 0.76 µM | 3.18 µM | 2.39 µM | 5.94 µM | 15 % of control | 80% | 83 % of control | 45% | IC50 [1]: 1.47 µM; activity in chronic arthritis screen ([5]; 8 mg/kg/day): significantly active; Rat Chronic Arthritis [5]: 33 % of control |
| C[N+]1([BH2-]C(=O)O)CCOCC1 [Compound 84] | – | – | – | – | – | – | – | at least 30% | – |
| COC(=O)[BH2-][NH+]1CCC(c2ccccc2)CC1 (stereo not drawn) [Compound 87] | 3.99 µM | 2.68 µM | 2.85 µM | 6.98 µM | 89 % of control | – | – | at least 30% | – |
| Cc1[nH]cc[n+]1[BH2-]C#N [Compound 91] | – | – | – | – | – | – | – | at least 30% | – |
| COc1ccc2c(c1)c(CC(=O)O)c(C)n2C(=O)c1ccc(Cl)cc1 [Indomethacin, indomethacin, reference compound] | – | – | – | – | 43 % of control | – | 78 % of control | – | Rat Pleurisy [6]: 12 % of control; inhibition of induced inflammation [7]: 26%; Rat Chronic Arthritis [5]: 55 % of control |
| CN1CC[C@]23c4c5ccc(O)c4O[C@H]2[C@@H](O)C=C[C@H]3[C@H]1C5 [Morphine, morphine, reference compound] | – | – | – | – | – | – | – | – | Mice Tail Flick [2]: 213 % of control |
| CCCCC1C(=O)N(c2ccccc2)N(c2ccccc2)C1=O [Phenylbutazone, phenylbutazone, reference compound] | – | – | – | – | – | – | 47 % of control | – | inhibition of induced inflammation [7]: 47% |
| CC(=O)CCCCn1c(=O)c2c(ncn2C)n(C)c1=O [pentoxifylline, reference compound] | – | – | – | – | – | – | – | – | inhibition of induced inflammation [7]: 30% |
